Data taken from the CheMixHub ionic liquid set.

Assay: xn = mol fraction of the nth substance listed

c1ccccc1 + CCCCCCCC[n+]1ccc2ccccc2c1.O=S(=O)([N-]S(=O)(=O)C(F)(F)F)C(F)(F)F
101 kPa, x1 = 1
Details	viscosity [mPa·s]
308.15 K	0.53
328.15 K	0.42

CCCC[n+]1ccn(C)c1.[I-] + CCO
298.15 K, 100 kPa
Details	electrical conductivity [S/m]
x1 = 0.009029	0.254
x1 = 0.1006	1.47
x1 = 0.2076	1.74

CC[n+]1ccn(C)c1.O=S(=O)([N-]S(=O)(=O)C(F)(F)F)C(F)(F)F + CCOC(C)=O
100 kPa
Details	viscosity [mPa·s]
303.15 K, x2 = 0.2977	12.85
303.15 K, x2 = 0.3962	9.43
303.15 K, x2 = 0.5961	4.75
303.15 K, x2 = 0.7974	1.97
303.15 K, x2 = 0.8979	0.88
308.15 K, x2 = 0	23.29
308.15 K, x2 = 0.2977	11.24
313.15 K, x2 = 0.3962	7.36
313.15 K, x2 = 0.5051	5.15
318.15 K, x2 = 0.1858	11.49
318.15 K, x2 = 0.3962	6.49
318.15 K, x2 = 0.5051	4.36
318.15 K, x2 = 0.8979	0.73
323.15 K, x2 = 0.6909	2.05

C[N+](C)(C)Cc1ccccc1.[Cl-] + O
electrical conductivity [S/m], 101.3 kPa, frequency 0.001 MHz
Details	298.15 K	308.15 K	318.15 K
x1 = 1.802e-05	0.0137	0.0183	0.0233
x1 = 5.406e-05	0.0295	0.0398	0.0456
x1 = 9.009e-05	0.0457	0.0565	0.0643

viscosity [mPa·s]
Details	298.15 K	303.15 K	308.15 K	318.15 K
100 kPa, x1 = 0.0004874	–	0.813	–	–
101.3 kPa, x1 = 1.802e-05	0.88	–	–	0.611
101.3 kPa, x1 = 5.406e-05	–	–	0.747	0.627
101.3 kPa, x1 = 9.009e-05	0.914	–	0.766	0.646

CC[n+]1ccn(C)c1.O=S(=O)([N-]S(=O)(=O)C(F)(F)F)C(F)(F)F + O
Details	electrical conductivity [S/m]	viscosity [mPa·s]
297.55 K, 101 kPa, x1 = 0.889	–	26
297.85 K, 101 kPa, x2 = 0.205	1.22	–
298 K, 101 kPa, x2 = 0.02	–	32.3
298 K, 101 kPa, x2 = 0.0629	–	30.8
298 K, 101 kPa, x2 = 0.199	–	25.4
298 K, 101 kPa, x2 = 0.227	–	25.2
298.15 K, 101 kPa, x2 = 0.205	1.3	–
299.15 K, 101 kPa, x2 = 0.205	1.32	–
300.35 K, 101 kPa, x2 = 0.205	1.38	–
302.15 K, 101 kPa, x2 = 0.205	1.45	–
302.85 K, 101 kPa, x2 = 0.205	1.51	–
303.15 K, 100 kPa, x2 = 0.298	–	16.23
303.95 K, 101 kPa, x2 = 0.205	1.61	–
304.95 K, 101 kPa, x2 = 0.205	1.66	–
313.15 K, 100 kPa, x2 = 0.298	–	12.29
333.15 K, 100 kPa, x2 = 0.298	–	7.749

c1ccccc1 + CCCC[n+]1ccn(C)c1.O=S(=O)([O-])C(F)(F)F
100 kPa, x1 = 1
Details	viscosity [mPa·s]
308.15 K	0.527
318.15 K	0.466

CC[S+](CC)CCOCCOCCOCCOCC[S+](CC)CC.O=S(=O)([N-]S(=O)(=O)C(F)(F)F)C(F)(F)F.O=S(=O)([N-]S(=O)(=O)C(F)(F)F)C(F)(F)F + CC[n+]1ccn(C)c1.N#C[N-]C#N + O=S(=O)([N-]S(=O)(=O)C(F)(F)F)C(F)(F)F.[Li+]
100 kPa, x1 = 0.1416, x2 = 0.7549
Details	electrical conductivity [S/m]
298 K	0.679
303 K	0.979
313 K	1.29
323 K	1.7
333 K	2.05
343 K	2.41

O=C[O-].OCC[NH2+]CCO + O
100 kPa
Details	viscosity [mPa·s]
293.15 K, x1 = 0.075	3.25
293.15 K, x1 = 0.3185	36.2
293.15 K, x1 = 1	471
303.15 K, x1 = 0.0292	1.34
303.15 K, x1 = 0.7987	172
313.15 K, x1 = 0.075	1.99
333.15 K, x1 = 0.3185	8.4
333.15 K, x1 = 0.7987	40.4
343.15 K, x1 = 0.5932	15.3
343.15 K, x1 = 1	35.9

CCCC[n+]1ccn(C)c1.[I-] + [I-].[Li+] + O
viscosity [mPa·s], 100 kPa
Details	x1 = 0.05, x2 = 0.05	x1 = 0.4, x2 = 0.05
198.25 K	–	1.3e+08
198.65 K	15000	–
203.85 K	6900	1.32e+07
208.75 K	3700	–
209.15 K	–	2900000
213.95 K	1900	490000
218.85 K	1600	180000
224.05 K	1200	68000
228.55 K	–	29000
228.95 K	810	–
233.05 K	470	–
234.15 K	–	15000
236.45 K	320	–
238.25 K	–	8000
241.25 K	220	–
243.85 K	–	3700
246.15 K	150	–
248.75 K	11	–
249.15 K	–	2500
253.95 K	9.7	1600
259.25 K	–	1000
259.65 K	7.7	–
263.4 K	6.1	–
264.1 K	–	600
268.6 K	–	440
268.9 K	5.2	–
273 K	–	280
274 K	4.5	–
278.6 K	4.5	–
279.1 K	–	180
283.55 K	3.9	120
288.45 K	3.6	–
289.15 K	–	82
293.65 K	3.1	65
298.55 K	2.6	41

Cc1cnc[nH]1 + CC[n+]1ccn(C)c1.[Cl-]
101.33 kPa, x2 = 0.667
Details	viscosity [mPa·s]
303.15 K	326
313.15 K	151.3
323.15 K	84.8
333.15 K	51.8
343.15 K	32.73
353.15 K	22.56

CC[n+]1ccccc1.[Cl-] + CC[n+]1ccccc1.[Br-]
101 kPa
Details	viscosity [mPa·s]
418.1 K, x1 = 0.196	9.57
418.1 K, x1 = 0.613	9.2
423.1 K, x1 = 0.196	8.73
423.1 K, x1 = 0.303	8.64
423.1 K, x1 = 0.613	8.37
423.1 K, x1 = 0.885	8.17
428.1 K, x1 = 0.303	7.88
428.1 K, x1 = 0.688	7.61
433.1 K, x1 = 0.503	7.14
438.1 K, x1 = 0.613	6.53
